Literature values in patent US20250312353A1, “DRUG R[…] TREATMENT OF […] MALFORMATIONS” (University of South Carolina, priority 2024, published 2025).

How the values were obtained:
[1] = tested on: human lung tumor associated endothelial cell; conditions: on matrigel; even in the presence of VEGF
host macrophage = conditions: bacterial infection

COc1nc2ccc(Br)cc2cc1[C@@H](c1ccccc1)[C@@](O)(CCN(C)C)c1cccc2ccccc12 [bedaquiline]
effect on capillary network formation [1]: inhibit capillary network formation
effect on host macrophage innate immune resistance (host macrophage): activate host macrophage innate immune resistance to bacterial infection
